According to publication PMC5640650, “NatD promotes lung cancer progression by preventing histone H4 serine phosphorylation to activate Slug expression” (Nature Communications, 2017):

Columns and labels:
[1] = system: Slug promoter; test: ChIP assay on the Slug promoter, H1299 cells; assay type: cell-based, human; conditions: vs Scr
Excerpt: Fig. 6 Nt-acetylation of histone H4 antagonizes phosphorylation of histone H4 serine 1 to regulate Slug expression. a Western blot analysis of indicated histone H4 modifications in Scr and NatD-KD H1299 cells. Histone H4 served as a loading control. b ChIP analysis of the enrichment of indicated histone H4 modifications on the Slug promoter in Scr and NatD-KD H1299 cells. IgG served as a negative control. Results are shown as mean ± s.d. from three independent experiments; two-tailed Student’s t-test, *P < 0.05, **P < 0.01 compared with the Scr control. c ChIP analysis of the enrichment of H3K4me3 and H3K27me3 on the Slug promoter in Scr and NatD-KD H1299 cells. IgG served as a negative control. Results are shown as mean ± s.d. from three independent experiments; two-tailed Student’s t-test, **P < 0.01 compared with the Scr control. d Western blot analysis of indicated proteins from H1299 cells overexpressing NatDΔ or wild-type NatD. Histone H4 served as a loading control. e ChIP analysis of the enrichment of Nt-ac-H4 and H4S1ph on Slug promoter in H1299 cells overexpressing NatDΔ or wild-type NatD. IgG served as a negative control. Results are shown as mean ± s.d. from three independent experiments; two-tailed Student’s t-test, *P < 0.05, **P < 0.01 compared with the wild-type control
Fig. 7 Downregulation of Nt-acetylation of histone H4 facilitates nuclear accumulation of CK2α and its binding to histone H4 in lung cancer cells. a Representative confocal scanning images of CK2α localization in Scr and H1299 cells (left panel). The staining intensity of CK2α was quantified by software ImageJ from NIH (right diagram). Scale bars, 5 μm. […] Equal peptide biotinylated on C terminus is shown by dot blot analysis with streptavidin (middle panel). […] IgG served as a negative control. Results are shown as mean ± s.d. from three independent experiments; two-tailed Student’s t-test, **P < 0.01 compared with the indicated control. g Quantitative real-time PCR analysis of mRNA levels of CK2α and Slug normalized to GAPDH in Scr and NatD-KD H1299 cells in the absence or presence of siRNA to CK2α. NC, siRNA mimics negative control. Data are mean ± s.d. of three independent experiments; Student’s t-test, *P < 0.05, **P < 0.01 compared with the indicated control. h Western blot analysis of indicated proteins from Scr and NatD-KD H1299 cells in the absence or presence of siRNA to CK2α.
ChIP assays were performed with H1299 cells in accordance with standard protocols. Normal rabbit IgG served as the control. ChIP samples were analyzed by quantitative real-time PCR using the FastStart Universal SYBR Green Master (Roche). A standard curve was prepared for each set of primers using serial titration of the input DNA. The percentage of ChIP DNA was calculated relative to the input DNA from primer-specific standard curves using the Rotor-Gene 6000 Series Software 1.7. The primer sequences for ChIP are listed in Supplementary Table 4. Antibodies used were: H4S1ph (Abcam; ab14723), H4K5ac (Millipore; CS204381), H4R3me2a (Active Motif; 39705), H4R3me2s (Abcam; ab5823), CK2α (Abcam; ab70774), H3K4me3 (Abcam; ab8580), and H3K27me3 (Abcam; ab6002).

[2] = system: CK2α; test: CK2α mRNA and protein expression, H1299 cells; assay type: cell-based, human; conditions: vs Scr
Protocol: Cellular proteins were extracted by RIPA lysis buffer at high salt concentration (420 mM NaCl), and western blot analysis was performed in accordance with standard protocols. Scans of enhanced chemiluminescence (ECL) films showing uncropped blots are presented in Supplementary Fig. 10. […]
Total RNA from tissue samples and cultured cells was extracted using TRIzol reagent (Invitrogen). cDNAs were synthesized with a HiScript 1st Strand cDNA Synthesis Kit (Vazyme Biotech, China). Quantitative RT-PCR was performed using a FastStart Universal SYBR Green Master (Roche) according to the manufacturer’s instructions in a Rotor-Gene 6000 (Corbett Research) in a final volume of 20 μl. […]
Supplementary Figure 8. […] (a) Quantitative real-time PCR analysis of NatD and CK2α mRNA levels in scrambled and NatD-KD H1299 cells normalized to GAPDH. […]

NatD-KD2: Human NatD shRNA KD2: 5′-GGTTGAATGTCTCCATTGA-3′, lentiviral (shRNA lentiviral)
enrichment of CK2α on Slug promoter [1]: significantly increased | enrichment of H3K4me3 on Slug promoter [1]: significantly reduced | enrichment of H3K27me3 on Slug promoter [1]: increased | enrichment of H4R3me2a and H4K5ac on Slug promoter [1]: significantly reduced | enrichment of H4R3me2s on Slug promoter [1]: unchanged | enrichment of H4S1ph on Slug promoter [1]: significantly increased | enrichment of Nt-ac-H4 on Slug promoter [1]: significantly reduced | levels of CK2α mRNA or protein [2]: no increase
